Here are results for two compounds from US20260102422A1, “4'-HALOGEN CONTAINING NUCLEOTIDE AND NUCLEOSIDE THERAPEUTIC COMPOSITIONS AND USES RELATED THERETO” (priority 2019, published 2026).

Molecules are shown by their SMILES. Bounds are passed on as bounds.

A short description of one data set: Plasma stability, rat. Conditions: drug 1.00 μM.
The nature of a further data set: Plasma stability, human. The note with it: drug 1.00 μM.
A further data set in a line: Plasma stability, mouse. The note with it: drug 1.00 μM.
Data set [1] in a line: Liver microsome stability, rat. Conditions: rat liver microsomes, drug 1.00 μM.
The nature of data set [2]: Liver microsome stability, human. Conditions: human liver microsomes, drug 1.00 μM.
A short description of data set [3]: Liver microsome stability, mouse. The note with it: mouse liver microsomes, drug 1.00 μM.

With `O=c1ccn([C@@H]2O[C@](F)(COP3(=O)OCc4ccccc4O3)[C@@H](O)[C@H]2O)c(=O)[nH]1` (stereo partly shown) [EIDD-02838], the half-life is listed as less than 1 min in “Plasma stability, rat”; 12 min in “Plasma stability, human” (37° C); 1 min in “Plasma stability, mouse”; 8 min in data set [1]; 7 min in data set [2]; 7 min in data set [3]. The “max [2749]” value in the data set “Plasma stability, rat” (EIDD-2749 formed) came to 0.0341 µM; in “Plasma stability, human” (EIDD-2749 formed), 0.0521 µM; in “Plasma stability, mouse” (EIDD-2749 formed), 0.0216 µM; in data set [1] (EIDD-2749 formed), 0.218 µM; in data set [2] (EIDD-2749 formed), 0.130 µM; in data set [3] (EIDD-2749 formed) it was 0.0347 µM.

The compound `CC(C)C(=O)OC[C@@]1(F)OC(n2ccc(=O)[nH]c2=O)C(O)[C@@H]1O` (stereo partly drawn) [EIDD-2947, [(2S, 3S)-5-(2,4-dioxopyrimidin-1-yl)-2-fluoro-3,4-dihydroxy-tetrahydrofuran-2-yl]methyl 2-methylpropanoate] registered a half-life in data set [2] of 44 min.
